Results reported in patent publication US12065445B2, “CDK2 inhibitors and methods of using the same” (Cedilla Therapeutics, Inc., priority 2021, dated 2024).

Key:
Kuramochi cells = test: BrdU Cell Proliferation Assay; format: cell-based; settings: read-out: BrdU - KURAMOCHI.1: IC50
In short: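 Kuramochi cells were seeded at 2,000 cells/well, adhered overnight, then treated with a 10-point, 3-fold compound dilution series for 4 days. Proliferation was measured by a 1-hour BrdU pulse, anti-BrdU peroxidase colorimetric ELISA and 450 nm absorbance. Values were background-subtracted and normalized to DMSO wells.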

[1] = system: Kuramochi cells labeled with mApple-H2B; test: IncuCyte Cell Proliferation Assay; format: cell-based; settings: 72 h
In short: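 Cells imaged at 0 and 72 h after compound treatment (10 points, ½ log dilution, 20 μM top), with fluorescent nuclei counted. Fold change in count was normalized to DMSO wells and fitted to dose-response curves to give GI50.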

Structure (SMILES) | IC50 (Kuramochi cells) | IC50 [1]
C[C@@H](OCC1CCCCC1)[C@H](NC(=O)C1CN(C(=O)C2CCC(=O)NC2)CC12CN(C(=O)[C@H]1CC1(C)C)C2)C(=O)N1CCCCC1 (stereo partly drawn) [I-265] | > 10 µM | > 20 µM
CNC(=O)[C@@H](NC(=O)[C@@H]1CN(C(=O)c2cnn(Cc3ccccc3)c2)CC12CN(C(=O)[C@H]1CC1(C)C)C2)[C@@H](C)N(C)CC1CCCCC1 [I-266] | > 10 µM | > 20 µM
CNC(=O)[C@@H](NC(=O)[C@@H]1CN(C(=O)c2cnn(Cc3ccccc3)c2)CC12CN(C(=O)NC(C)C)C2)[C@@H](C)OCC1CCCCC1 [I-267] | > 10 µM | > 20 µM
CNC(=O)[C@@H](NC(=O)[C@@H]1CN(C(=O)c2cnn(Cc3ccccc3)c2)CC12CN(C(=O)NC1CC1)C2)[C@@H](C)OCC1CCCCC1 [I-268, (S)-6-(1-benzyl-1H-pyrazole-4-carbonyl)-N8-((2S,3R)-3-(cyclohexylmethoxy)-1-(methylamino)-1-oxobutan-2-yl)-N2-cyclopropyl-2,6-diazaspiro[3.4]octane-2,8-dicarboxamide] | > 10 µM | > 20 µM
CNC(=O)[C@@H](NC(=O)[C@@H]1CN(C(=O)c2cnn(Cc3ccccc3)c2)CC12CN(C(=O)[C@H]1CC1(C)C)C2)[C@@H](C)NCC1CCCCC1 [I-269, (S)-6-(1-benzyl-1H-pyrazole-4-carbonyl)-N-((2S,3R)-3-((cyclohexylmethyl)amino)-1-(methylamino)-1-oxobutan-2-yl)-2-((S)-2,2-dimethylcyclopropane-1-carbonyl)-2,6-diazaspiro[3.4]octane-8-carboxamide] | > 10 µM | 5 to 20 µM
C[C@@H](OCC1CCCCC1)[C@H](NC(=O)[C@@H]1CN(C(=O)c2cnn(Cc3ccccc3)c2)CC12CN(C(=O)[C@H]1CC1(C)C)C2)C(=O)N1CC[C@@H]1CN [I-270] | > 10 µM | 5 to 20 µM
C[C@@H](OCC1CCCCC1)[C@@H](COC1CCC(F)(F)CC1)NC(=O)[C@@H]1CN(C(=O)c2cnn(Cc3ccccc3)c2)CC12CN(C(=O)[C@H]1CC1(C)C)C2 [I-271] | ≤ 0.5 µM | ≤ 0.5 µM
CNC(=O)[C@@H](NC(=O)[C@@H]1CN(C(=O)c2cnn(Cc3ccccc3)c2)CC12CN(C(=O)[C@H]1CC1(C)C)C2)[C@@H](C)N(CC1CCCCC1)C(C)=O [I-273, (S)-6-(1-benzyl-1H-pyrazole-4-carbonyl)-N-((2S,3R)-3-(N-(cyclohexylmethyl)acetamido)-1-(methylamino)-1-oxobutan-2-yl)-2-((S)-2,2-dimethylcyclopropane-1-carbonyl)-2,6-diazaspiro[3.4]octane-8-carboxamide] | > 10 µM | > 20 µM
CNC(=O)[C@@H](NC(=O)[C@@H]1CN(C(=O)c2cnn(Cc3ccccc3)c2)CC12CN(C(=O)N(C)C(C)C)C2)[C@@H](C)OCC1CCCCC1 [I-274, (S)-6-(1-benzyl-1H-pyrazole-4-carbonyl)-N8-((2S,3R)-3-(cyclohexylmethoxy)-1-(methylamino)-1-oxobutan-2-yl)-N2-isopropyl-N2-methyl-2,6-diazaspiro[3.4]octane-2,8-dicarboxamide] | 5 to 10 µM | 5 to 20 µM
C[C@H](OC1CCN(C(=O)[C@@H]2CN(C(=O)c3cnn(Cc4ccccc4)c3)CC23CN(C(=O)[C@H]2CC2(C)C)C3)CC1)c1ccccc1 [I-275] | > 10 µM | > 20 µM
CNC(=O)[C@@H](NC(=O)[C@@H]1CN(C(=O)c2cnn(Cc3ccccc3)c2)CC12CN(C(=O)C(C)(C)C1CC1)C2)[C@@H](C)OCc1ccccc1 [I-276] | > 10 µM | > 20 µM
CNC(=O)[C@@H](NC(=O)[C@@H]1CN(C(=O)c2cnn(Cc3ccccc3)c2)CC12CN(C(=O)C(C)C1CC1)C2)[C@@H](C)OCc1ccccc1 (stereo partly drawn) [I-277] | > 10 µM | > 20 µM
Cc1ccc2[nH]c(CNC(=O)C3CN(C(=O)c4cnn(Cc5ccccc5)c4)CC34CN(C(=O)[C@H]3CC3(C)C)C4)nc2c1 (stereo partly drawn) [I-278] | > 10 µM | > 20 µM
CNC(=O)[C@@H](NC(=O)[C@@H]1CN(C(=O)c2cncs2)CC12CN(C(=O)[C@H]1CC1(C)C)C2)[C@@H](C)OC(C)C1CCCCC1 (stereo partly drawn) [I-279] | 0.5 to 5 µM | 0.5 to 5 µM
C[C@@H](OCc1ccccc1)[C@H](NC(=O)[C@@H]1CN(C(=O)c2cnn(Cc3ccccc3)c2)CC12CN(C(=O)[C@H]1CC1(C)C)C2)C(=O)N1CCC(F)(F)CC1 [I-280] | 0.5 to 5 µM | 0.5 to 5 µM
C[C@@H](OCC1CCCCC1)[C@H](NC(=O)[C@@H]1CN(C(=O)c2cnn(Cc3ccccc3)c2)CC12CN(C(=O)[C@H]1CC1(C)C)C2)C(C)(C)O [I-281] | 0.5 to 5 µM | ≤ 0.5 µM
C[C@@H](OCC1CCCCC1)[C@@H](COCC1CCCCC1)NC(=O)[C@@H]1CN(C(=O)c2cncs2)CC12CN(C(=O)[C@H]1CC1(C)C)C2 [I-282] | ≤ 0.5 µM | ≤ 0.5 µM
COC[C@H]1CCCN(C(=O)[C@@H](NC(=O)[C@@H]2CN(C(=O)c3cnn(Cc4ccccc4)c3)CC23CN(C(=O)[C@H]2CC2(C)C)C3)[C@@H](C)OC)C1 [I-283] | > 10 µM | > 20 µM
CC(O[C@H](C)[C@H](NC(=O)[C@@H]1CN(C(=O)c2cncs2)CC12CN(C(=O)[C@H]1CC1(C)C)C2)C(=O)N1CCCCC1)C1CCCCC1 (stereo partly drawn) [I-284, (8S)—N-((2S,3R)-3-(1-cyclohexylethoxy)-1-oxo-1-(piperidin-1-yl)butan-2-yl)-2-((S)-2,2-dimethylcyclopropane-1-carbonyl)-6-(thiazole-5-carbonyl)-2,6-diazaspiro[3.4]octane-8-carboxamide] | 0.5 to 5 µM | 0.5 to 5 µM
CC1(C)C[C@@H]1C(=O)N1CC2(CN(C(=O)c3cncs3)C[C@H]2C(=O)N[C@@H](COCC2CCCCC2)C(=O)N2CCCCC2)C1 [I-286] | 0.5 to 5 µM | 0.5 to 5 µM

Structure (SMILES) | IC50 (Kuramochi cells) | IC50 [1]
C[C@@H](OCC1(C(F)(F)F)CC1)[C@H](NC(=O)[C@@H]1CN(C(=O)c2cncs2)CC12CN(C(=O)[C@H]1CC1(C)C)C2)C(=O)N1CCC(F)(F)CC1 [I-287] | > 10 µM | 5 to 20 µM
C[C@@H](OCC1CCOCC1)[C@H](NC(=O)[C@@H]1CN(C(=O)c2cncs2)CC12CN(C(=O)[C@H]1CC1(C)C)C2)C(=O)N1CCC(F)(F)CC1 [I-288] | > 10 µM | 5 to 20 µM
CNC(=O)[C@@H](NC(=O)[C@@H]1CN(C(=O)c2cncs2)CC12CN(C(=O)[C@H]1CC1(C)C)C2)[C@@H](C)OCC12CCC(CC1)CC2 [I-289] | ≤ 0.5 µM | ≤ 0.5 µM
CNC(=O)[C@@H](NC(=O)[C@@H]1CN(C(=O)c2cncs2)CC12CN(C(=O)[C@H]1CC1(C)C)C2)[C@@H](C)OC1CCCCC1 [I-290] | > 10 µM | 5 to 20 µM
CC1(C)C[C@@H]1C(=O)N1CC2(CN(C(=O)c3cncs3)C[C@@H]2C(=O)N[C@@H](COCC2CCCCC2)C(=O)N2CCCCC2)C1 [I-293] | > 10 µM | > 20 µM
CNC(=O)[C@@H](NC(=O)[C@@H]1CN(C(=O)c2cnn(Cc3ccccc3)c2)CC12CN(CC(=O)O)C2)[C@@H](C)OCC1CCCCC1 [I-294, 2-((S)-6-(1-benzyl-1H-pyrazole-4-carbonyl)-8-(((2S,3R)-3-(cyclohexylmethoxy)-1-(methylamino)-1-oxobutan-2-yl)carbamoyl)-2,6-diazaspiro[3.4]octan-2-yl)acetic acid] | > 10 µM | > 20 µM
CNC(=O)[C@@H](NC(=O)[C@@H]1CN(C(=O)c2cnn(Cc3ccccc3)c2)CC12CN(C(=O)N(C)C1CC1)C2)[C@@H](C)OCC1CCCCC1 [I-295] | 5 to 10 µM | 5 to 20 µM
C[C@@H](OCC1CCCCC1)[C@H](NC(=O)[C@@H]1CN(C(=O)c2cncs2)CC12CN(C(=O)[C@H]1CC1(F)F)C2)C(=O)N1CCCCC1 [I-296] | 0.5 to 5 µM | 0.5 to 5 µM
CNC(=O)C(NC(=O)[C@@H]1CN(C(=O)c2cn[nH]c2)CC12CN(C(=O)[C@H]1CC1(C)C)C2)C(O)Cc1ccccc1 (stereo partly drawn) [I-298] | > 10 µM | > 20 µM
CNC(=O)[C@@H](NC(=O)[C@@H]1CN(C(=O)c2cnn(Cc3ccccc3)c2)CC12CN(C(=O)[C@H]1CC1(C)C)C2)[C@@H](C)OCC12CC(C(=O)OC)(C1)C2 [I-299] | > 10 µM | > 20 µM
C[C@@H](OCC1CCC(F)(F)CC1)[C@H](NC(=O)[C@@H]1CN(C(=O)c2cn[nH]c2)CC12CN(C(=O)C1(C(F)(F)F)CC1)C2)C(=O)N1CCOCC1 [I-302] | > 10 µM | > 20 µM
C[C@@H](OCC12CCC(CC1)CC2)[C@H](NC(=O)[C@@H]1CN(C(=O)c2cncs2)CC12CN(C(=O)[C@H]1CC1(C)C)C2)C(C)(C)O [I-304] | 0.5 to 5 µM | 0.5 to 5 µM
CO[C@H](C)[C@H](NC(=O)[C@@H]1CN(C(=O)c2cnn(Cc3ccccc3)c2)CC12CN(C(=O)[C@H]1CC1(C)C)C2)C(=O)N1CCC(CN)CC1 [I-306] | > 10 µM | > 20 µM
C[C@@H](OCC1CCCCC1)[C@@H](CO)NC(=O)[C@@H]1CN(C(=O)c2cncs2)CC12CN(C(=O)[C@H]1CC1(C)C)C2 [I-307] | 0.5 to 5 µM | 0.5 to 5 µM
C[C@@H](OCC1CCCCC1)[C@@H](COC1CCCCC1)NC(=O)[C@@H]1CN(C(=O)c2cncs2)CC12CN(C(=O)[C@H]1CC1(C)C)C2 [I-308] | ≤ 0.5 µM | 0.5 to 5 µM
C[C@@H](OCC1CCCCC1)[C@@H](COC(F)(F)F)NC(=O)[C@@H]1CN(C(=O)c2cnn(Cc3ccccc3)c2)CC12CN(C(=O)[C@H]1CC1(C)C)C2 [I-309] | 0.5 to 5 µM | 0.5 to 5 µM
Cc1cc(C(=O)N2CC(C(=O)N[C@H](C(=O)N3CCCCC3)[C@@H](C)OCC3CCCCC3)C3(C2)CN(C(=O)[C@H]2CC2(C)C)C3)sn1 (stereo partly drawn) [I-311] | ≤ 0.5 µM | ≤ 0.5 µM
COC[C@H]1CCCN(C(=O)[C@@H](NC(=O)[C@@H]2CN(C(=O)c3cncs3)CC23CN(C(=O)[C@H]2CC2(C)C)C3)[C@@H](C)OCc2ccc(Cl)cc2F)C1 [I-317] | 0.5 to 5 µM | 0.5 to 5 µM
COC[C@H]1CCCN(C(=O)[C@@H](NC(=O)[C@@H]2CN(C(=O)c3cncs3)CC23CN(C(=O)[C@H]2CC2(C)C)C3)[C@@H](C)OCc2ccc(F)cc2)C1 [I-318] | 0.5 to 5 µM | 0.5 to 5 µM
